Paper PMC6746701, “A phyB-PIF1-SPA1 kinase regulatory complex promotes photomorphogenesis in Arabidopsis” (Nature Communications, 2019)
Numbering of substitutions follows the chain as printed. One block for each molecule: values may come before it.

Legend:
SPA1-Kin [1] = target: T1, SPA1-Kin (Arabidopsis thaliana, UniProt Q9SYX2); experiment: in vitro autophosphorylation assay, autoradiogram; type: biochemical; details: 10 mM MgCl2, pH 7.5, 28 °C; labelled compound (gamma-32P)
T1 sequence (Q9SYX2 1-545 limits assumed): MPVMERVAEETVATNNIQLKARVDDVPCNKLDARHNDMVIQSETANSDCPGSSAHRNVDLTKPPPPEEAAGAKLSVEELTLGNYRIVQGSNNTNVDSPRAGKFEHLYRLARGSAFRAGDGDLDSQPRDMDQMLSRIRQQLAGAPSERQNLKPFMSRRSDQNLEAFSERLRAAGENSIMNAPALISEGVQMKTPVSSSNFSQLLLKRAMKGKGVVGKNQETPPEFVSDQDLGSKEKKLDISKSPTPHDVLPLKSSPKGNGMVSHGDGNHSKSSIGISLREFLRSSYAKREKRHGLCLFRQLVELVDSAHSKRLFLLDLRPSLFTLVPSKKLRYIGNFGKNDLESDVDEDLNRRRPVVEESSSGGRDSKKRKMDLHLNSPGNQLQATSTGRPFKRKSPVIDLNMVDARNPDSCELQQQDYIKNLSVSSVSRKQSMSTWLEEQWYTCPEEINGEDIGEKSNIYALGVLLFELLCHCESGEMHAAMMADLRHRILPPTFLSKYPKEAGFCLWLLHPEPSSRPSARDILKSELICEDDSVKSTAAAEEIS

phyB = target: T2, phyB (Arabidopsis thaliana, UniProt P14713); experiment: in vitro kinase assay, autoradiogram; type: biochemical; details: PIF1 as co-substrate, 10 mM MgCl2, pH 7.5, 28 °C; labelled compound (gamma-32P)
T2 construct: full length (1172 aa), strep-tagged from Pichia pastoris GS115 or GFP fusion from Saccharomyces cerevisiae; holoprotein with phycocyanobilin; dimer
T2 sequence (P14713 1-1172): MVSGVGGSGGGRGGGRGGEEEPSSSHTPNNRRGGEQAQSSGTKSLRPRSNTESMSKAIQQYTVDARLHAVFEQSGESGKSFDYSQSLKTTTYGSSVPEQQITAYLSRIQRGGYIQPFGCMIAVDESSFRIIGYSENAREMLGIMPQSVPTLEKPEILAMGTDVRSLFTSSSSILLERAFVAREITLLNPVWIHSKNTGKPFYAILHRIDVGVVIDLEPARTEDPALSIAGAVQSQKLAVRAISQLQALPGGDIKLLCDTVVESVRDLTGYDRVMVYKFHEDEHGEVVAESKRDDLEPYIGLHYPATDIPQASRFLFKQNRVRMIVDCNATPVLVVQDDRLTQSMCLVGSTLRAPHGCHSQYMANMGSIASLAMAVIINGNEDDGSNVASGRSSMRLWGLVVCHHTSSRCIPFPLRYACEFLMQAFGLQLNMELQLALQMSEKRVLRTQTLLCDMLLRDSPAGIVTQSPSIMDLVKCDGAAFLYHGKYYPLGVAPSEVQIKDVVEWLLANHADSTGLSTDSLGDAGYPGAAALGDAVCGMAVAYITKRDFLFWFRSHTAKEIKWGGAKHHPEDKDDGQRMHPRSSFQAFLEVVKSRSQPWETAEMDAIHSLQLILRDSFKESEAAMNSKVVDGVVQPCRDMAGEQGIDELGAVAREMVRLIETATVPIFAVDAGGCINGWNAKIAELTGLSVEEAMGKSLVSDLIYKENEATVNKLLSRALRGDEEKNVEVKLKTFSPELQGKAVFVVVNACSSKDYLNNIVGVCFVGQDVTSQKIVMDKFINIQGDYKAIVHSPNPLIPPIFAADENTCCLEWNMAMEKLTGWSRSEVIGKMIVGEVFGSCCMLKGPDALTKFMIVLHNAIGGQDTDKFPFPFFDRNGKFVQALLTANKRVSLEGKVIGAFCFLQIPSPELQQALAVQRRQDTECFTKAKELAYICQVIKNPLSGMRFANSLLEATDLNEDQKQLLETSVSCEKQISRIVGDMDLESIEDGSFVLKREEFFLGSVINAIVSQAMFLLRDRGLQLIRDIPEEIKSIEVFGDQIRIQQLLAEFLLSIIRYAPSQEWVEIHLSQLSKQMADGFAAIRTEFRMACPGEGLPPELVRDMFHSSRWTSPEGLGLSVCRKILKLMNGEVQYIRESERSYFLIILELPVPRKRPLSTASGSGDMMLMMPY

SPA1-Kin [2] = target: T3, SPA1-Kin (Arabidopsis thaliana, UniProt Q9SYX2, R517E, form not given); experiment: in vitro autophosphorylation assay, autoradiogram; type: biochemical; details: 10 mM MgCl2, pH 7.5, 28 °C; labelled compound (gamma-32P)
T3 sequence (Q9SYX2 1-545 R517E limits assumed): T1 sequence (Q9SYX2 1-545 limits assumed) with R517E

[3] = target: T4, Arabidopsis phytochrome B holoprotein purified from Pichia pastoris (Arabidopsis, UniProt P14713 1-1172, phycocyanobilin chromophore assembled); experiment: pull-down; tripartite complex: 2 µg GST-PIF1-strep on GST agarose beads, 1-2 µg purified phyB from Pichia pastoris, with E. coli lysate holding MBP-SPA1; anti-strep blot; details: both partners purified
T4 construct: phytochrome B (phyB), Arabidopsis; also called phyB; Pfr form of phyB; source: Pichia pastoris GS115, purified (ammonium sulfate, Strep-Tactin Sepharose)
T4 sequence (looked up): T2 sequence (P14713 1-1172)

Molecule: Nc1ncnc2c1ncn2[C@@H]1O[C@H](COP(=O)(O)OP(=O)(O)OP(=O)(O)O)[C@@H](O)[C@H]1O [ATP]
in vitro autophosphorylation assay, autoradiogram (SPA1-Kin [1]): The purified SPA1-Kin domain displayed autophosphorylation activity in a protein concentration-dependent manner | in vitro kinase assay, autoradiogram (phyB): both SPA1 and phyB independently phosphorylates PIF1 in vitro | in vitro autophosphorylation assay, autoradiogram (SPA1-Kin [2]): significantly reduced auto-phosphorylation activity for the SPA1-Kin^R517E (mSPA1) mutant

binding result [3]: binds
B1: GST-PIF1-strep (natural protein, Arabidopsis, UniProt Q8GZM7 1-478, looked up)
chain: MHHFVPDFDTDDDYVNNHNSSLNHLPRKSITTMGEDDDLMELLWQNGQVVVQNQRLHTKKPSSSPPKLLPSMDPQQQPSSDQNLFIQEDEMTSWLHYPLRDDDFCSDLLFSAAPTATATATVSQVTAARPPVSSTNESRPPVRNFMNFSRLRGDFNNGRGGESGPLLSKAVVRESTQVSPSATPSAAASESGLTRRTDGTDSSAVAGGGAYNRKGKAVAMTAPAIEITGTSSSVVSKSEIEPEKTNVDDRKRKEREATTTDETESRSEETKQARVSTTSTKRSRAAEVHNLSERKRRDRINERMKALQELIPRCNKSDKASMLDEAIEYMKSLQLQIQMMSMGCGMMPMMYPGMQQYMPHMAMGMGMNQPIPPPSFMPFPNMLAAQRPLPTQTHMAGSGPQYPVHASDPSRVFVPNQQYDPTSGQPQYPAGYTDPYQQFRGLHPTQPPQFQNQATSYPSSSRVSSSKESEDHGNHTTG
notes: source: E. coli BL21(DE3), purified (Strep-Tactin Sepharose); not shown: GST, N-terminal, kept; Strep tag, C-terminal, kept
